Assays:
[1] = target: NAMPT (human, recombinant, C-terminally His-tagged) (Homo sapiens, UniProt P43490); test: Time-Resolved Fluorescence Resonance Energy Transfer (TR-FRET) Binding Assay of NAMPT; settings: 6.8 nM NAMPT, 200 nM probe, equilibrated 3 hours, absence of substrates
Procedure: Determination of the utility of compounds having Formula (I) as binders to and inhibitors of NAMPT was performed using Time-Resolved Fluorescence Resonance Energy Transfer (TR-FRET) binding assays.
Time-Resolved Fluorescence Resonance Energy Transfer (TR-FRET) Binding Assay of NAMPT
Test compounds were serially diluted (typically 11 half log dilutions) in neat DMSO to 50× final concentrations prior to dilution with assay buffer (50 mM HEPES (NaOH), pH 7.5, 100 mM NaCl, 10 mM MgCl2, 1 mM DTT, 1% Glycerol) to 3× and 6% DMSO. Six μL were transferred to 384-well low-volume plates (Owens Corning #3673). To this, 12 μL of a 1.5× solution containing enzyme, probe and antibody were added. Final concentrations in the 18 μL, reactions were 1× assay buffer, 2% DMSO, 6.8 nM NAMPT (human, recombinant, C-terminally His-tagged), 200 nM probe (a potent nicotinamide-competitive inhibitor conjugated to Oregon Green 488) and 1 nM Tb-anti-His antibody (Invitrogen #PV5895). Reactions were equilibrated at room temperature for 3 hours prior to reading on an Envision multi-label plate reader (Perkin Elmer; Ex=337 nm, Em=520 and 495 nm). Time-resolved FRET ratios (Em520/Em495) were normalized to controls, plotted as a function of compound concentration and fit with the four-parameter logistic equation to determine IC50s.

NAMPT = NAMPT (Homo sapiens, UniProt P43490); test: Time-Resolved Fluorescence Resonance Energy Transfer (TR-FRET) Binding Assay of NAMPT with PRPP; settings: 2 nM NAMPT, 2 nM probe, 200 uM PRPP and 2.5 mM ATP, equilibrated 16 hours
Chain of NAMPT (P43490 whole entry): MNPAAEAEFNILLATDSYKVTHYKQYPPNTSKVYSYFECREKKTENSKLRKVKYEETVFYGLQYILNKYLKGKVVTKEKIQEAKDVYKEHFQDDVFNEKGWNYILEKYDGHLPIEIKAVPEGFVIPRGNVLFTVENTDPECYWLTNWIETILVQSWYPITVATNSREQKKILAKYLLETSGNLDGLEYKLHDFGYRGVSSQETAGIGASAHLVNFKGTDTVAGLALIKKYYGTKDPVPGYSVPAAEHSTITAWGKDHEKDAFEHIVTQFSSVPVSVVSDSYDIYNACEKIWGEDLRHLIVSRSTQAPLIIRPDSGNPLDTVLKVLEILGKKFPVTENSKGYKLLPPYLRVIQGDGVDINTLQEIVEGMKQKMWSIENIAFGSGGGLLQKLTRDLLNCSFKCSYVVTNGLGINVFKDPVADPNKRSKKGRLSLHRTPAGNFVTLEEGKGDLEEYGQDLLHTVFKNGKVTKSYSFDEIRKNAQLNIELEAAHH
Procedure: Time-Resolved Fluorescence Resonance Energy Transfer (TR-FRET) Binding Assay of NAMPT with PRPP
Compound handling and data processing were identical to the assay in the absence of substrates (above). Final concentrations were 1× assay buffer, 2% DMSO, 2 nM NAMPT, 2 nM probe, 1 nM Tb-anti-His antibody (Invitrogen #PV5895), 200 uM PRPP and 2.5 mM ATP. Reactions were equilibrated for 16 hours prior to measurement to allow for potential enzymatic modification of test compounds.

Chain of NAMPT (human, recombinant, C-terminally His-tagged) (P43490 whole entry): as above

Structure (SMILES)	IC50 [1] [nM]	IC50 (NAMPT) [nM]
Cc1ccc(C(=O)N2CCC(Oc3ccc(NC(=O)C4CN(c5cccnc5)C4)cc3)CC2)s1 [Example 62, N-[4-({1-[(5-methylthiophen-2-yl)carbonyl]piperidin-4-yl}oxy)phenyl]-1-(pyridin-3-yl)azetidine-3-carboxamide]	41.6	0.666
CC(=O)N[C@@H](CC(C)C)C(=O)N1CCC(c2ccc(NC(=O)C3CN(c4cccnc4C)C3)cc2)CC1 [Example 180, N-{4-[1-(N-acetyl-L-leucyl)piperidin-4-yl]phenyl}-1-(2-methylpyridin-3-yl)azetidine-3-carboxamide]	304	123
CC(C)CCC(=O)N1CCC(c2ccc(NC(=O)C3CN(c4cccnc4)C3)cc2)CC1 [Example 116, N-{4-[1-(4-methylpentanoyl)piperidin-4-yl]phenyl}-1-(pyridin-3-yl)azetidine-3-carboxamide]	26.5	0.204
COCC(=O)N1CCC(Oc2ccc(NC(=O)C3CN(c4cccnc4)C3)cc2)CC1 [Example 57, N-(4-{[1-(methoxyacetyl)piperidin-4-yl]oxy}phenyl)-1-(pyridin-3-yl)azetidine-3-carboxamide]	180	1.07
O=C(Nc1ccc(OC2CN(C(=O)C3CCCC3)C2)cc1)C1CN(c2ccnnc2)C1 [Example 259, N-(4-{[1-(cyclopentylcarbonyl)azetidin-3-yl]oxy}phenyl)-1-(pyridazin-4-yl)azetidine-3-carboxamide]	32.5	17.7
O=C(Nc1ccc(OC2CCN(C(=O)C3CCCO3)CC2)cc1)C1CN(c2cccnn2)C1 (centres unmarked) [Example 221, 1-(pyridazin-3-yl)-N-(4-{[1-(tetrahydrofuran-2-ylcarbonyl)piperidin-4-yl]oxy}phenyl)azetidine-3-carboxamide]	164	0.576
O=C(Nc1ccc(OC2CCN(C(=O)c3cc(F)cc(F)c3)CC2)cc1)C1CN(c2cccnn2)C1 [Example 243, N-(4-{[1-(3,5-difluorobenzoyl)piperidin-4-yl]oxy}phenyl)-1-(pyridazin-3-yl)azetidine-3-carboxamide]	269	0.97
CC(C)C(C)C(=O)N1CCC(c2ccc(NC(=O)C3CN(c4cccnc4)C3)cc2)CC1 (centres unmarked) [Example 139, N-{4-[1-(2,3-dimethylbutanoyl)piperidin-4-yl]phenyl}-1-(pyridin-3-yl)azetidine-3-carboxamide]	12	0.473
CC(C)C(=O)N1CCC(Oc2ccc(NC(=O)C3CN(c4ccnnc4)C3)cc2)CC1 [Example 294, N-(4-{[1-(2-methylpropanoyl)piperidin-4-yl]oxy}phenyl)-1-(pyridazin-4-yl)azetidine-3-carboxamide]	112	55.1
Cc1ncccc1N1CC(C(=O)Nc2ccc(C3CCN(C(=O)C4(C)CC4)CC3)cc2)C1 [Example 170, N-(4-{1-[(1-methylcyclopropyl)carbonyl]piperidin-4-yl}phenyl)-1-(2-methylpyridin-3-yl)azetidine-3-carboxamide]	91.5	89.8
O=C(Nc1ccc(OC2CCN(C(=O)c3ccccc3F)CC2)cc1)C1CN(c2cccnn2)C1 [Example 228, N-(4-{[1-(2-fluorobenzoyl)piperidin-4-yl]oxy}phenyl)-1-(pyridazin-3-yl)azetidine-3-carboxamide]	54.6	0.911
CN(C)CCC(=O)N1CCC(c2ccc(NC(=O)C3CN(c4cccnc4)C3)cc2)CC1 [Example 107, N-{4-[1-(N,N-dimethyl-beta-alanyl)piperidin-4-yl]phenyl}-1-(pyridin-3-yl)azetidine-3-carboxamide]	163	0.169
Cc1ncccc1N1CC(C(=O)Nc2ccc(C3CCN(C(=O)c4cccnn4)CC3)cc2)C1 [Example 158, 1-(2-methylpyridin-3-yl)-N-{4-[1-(pyridazin-3-ylcarbonyl)piperidin-4-yl]phenyl}azetidine-3-carboxamide]	2900	224
CC[C@H](C)C(=O)N1CCC(c2ccc(NC(=O)C3CN(c4cccnc4)C3)cc2)CC1 [Example 22, N-(4-{1-[(2S)-2-methylbutanoyl]piperidin-4-yl}phenyl)-1-(pyridin-3-yl)azetidine-3-carboxamide]	11.7	0.169
O=C(Nc1ccc(OC2CCN(C(=O)C3CCOCC3)CC2)cc1)C1CN(c2cccnn2)C1 [Example 214, 1-(pyridazin-3-yl)-N-(4-{[1-(tetrahydro-2H-pyran-4-ylcarbonyl)piperidin-4-yl]oxy}phenyl)azetidine-3-carboxamide]	165	0.841
O=C(Nc1ccc(OC2CCN(C(=O)c3cscn3)CC2)cc1)C1CN(c2ccnnc2)C1 [Example 272, 1-(pyridazin-4-yl)-N-(4-{[1-(1,3-thiazol-4-ylcarbonyl)piperidin-4-yl]oxy}phenyl)azetidine-3-carboxamide]	165	52.4
O=C(Nc1ccc(OC2CCN(C(=O)Cc3ccc(C(F)(F)F)cc3)CC2)cc1)C1CN(c2ccnnc2)C1 [Example 273, 1-(pyridazin-4-yl)-N-{4-[(1-{[4-(trifluoromethyl)phenyl]acetyl}piperidin-4-yl)oxy]phenyl}azetidine-3-carboxamide]	128	42.1
CCCCC(=O)N1CCC(Oc2ccc(NC(=O)C3CN(c4cccnc4)C3)cc2)CC1 [Example 34, N-{4-[(1-pentanoylpiperidin-4-yl)oxy]phenyl}-1-(pyridin-3-yl)azetidine-3-carboxamide]	71.4	0.886
CCOCCC(=O)N1CCC(c2ccc(NC(=O)C3CN(c4cccnn4)C3)cc2)CC1 [Example 380, N-{4-[1-(3-ethoxypropanoyl)piperidin-4-yl]phenyl}-1-(pyridazin-3-yl)azetidine-3-carboxamide]	109	0.883
CCCCCCC(=O)N1CCC(c2ccc(NC(=O)C3CN(c4cccnn4)C3)cc2)CC1 [Example 329, N-[4-(1-heptanoylpiperidin-4-yl)phenyl]-1-(pyridazin-3-yl)azetidine-3-carboxamide]	24.2	0.616
CC(C)(O)C(=O)N1CCC(c2ccc(NC(=O)C3CN(c4ccnnc4)C3)cc2)CC1 [Example 85, N-{4-[1-(2-hydroxy-2-methylpropanoyl)piperidin-4-yl]phenyl}-1-(pyridazin-4-yl)azetidine-3-carboxamide]	32.2	17
Cc1ccc(C(=O)N2CCC(c3ccc(NC(=O)C4CN(c5cccnn5)C4)cc3)CC2)s1 [Example 377, N-(4-{1-[(5-methylthiophen-2-yl)carbonyl]piperidin-4-yl}phenyl)-1-(pyridazin-3-yl)azetidine-3-carboxamide]	16.2	0.632
CC(C)(C)CC(=O)N1CCC(c2ccc(NC(=O)C3CN(c4cccnn4)C3)cc2)CC1 [Example 327, N-{4-[1-(3,3-dimethylbutanoyl)piperidin-4-yl]phenyl}-1-(pyridazin-3-yl)azetidine-3-carboxamide]	12.6	0.655
O=C(Nc1ccc(C2CCN(C(=O)C3CCCCC3)CC2)cc1)C1CN(c2cccnc2)C1 [Example 136, N-{4-[1-(cyclohexylcarbonyl)piperidin-4-yl]phenyl}-1-(pyridin-3-yl)azetidine-3-carboxamide]	20.4	0.635
COc1ccccc1C(=O)N1CCC(c2ccc(NC(=O)C3CN(c4cccnn4)C3)cc2)CC1 [Example 345, N-{4-[1-(2-methoxybenzoyl)piperidin-4-yl]phenyl}-1-(pyridazin-3-yl)azetidine-3-carboxamide]	9.54	0.392
O=C(Nc1ccc(OC2CCN(C(=O)Cc3cccc(F)c3)CC2)cc1)C1CN(c2ccnnc2)C1 [Example 288, N-[4-({1-[(3-fluorophenyl)acetyl]piperidin-4-yl}oxy)phenyl]-1-(pyridazin-4-yl)azetidine-3-carboxamide]	44.9	19.5
O=C(Nc1ccc(C2CCN(C(=O)C3CCOCC3)CC2)cc1)C1CN(c2ccnnc2)C1 [Example 146, 1-(pyridazin-4-yl)-N-{4-[1-(tetrahydro-2H-pyran-4-ylcarbonyl)piperidin-4-yl]phenyl}azetidine-3-carboxamide]	65.9	109
O=C(Nc1ccc(OC2CCN(C(=O)Cc3ccc(C(F)(F)F)cc3)CC2)cc1)C1CN(c2cccnn2)C1 [Example 220, 1-(pyridazin-3-yl)-N-{4-[(1-{[4-(trifluoromethyl)phenyl]acetyl}piperidin-4-yl)oxy]phenyl}azetidine-3-carboxamide]	267	1.01
